Experimental data reported in patent publication US20100305157A1 (priority 2007, published 2010).
Like-named read-outs stand apart in the source and are kept apart here.

Key:
[1] = tested on: human neuroblastoma cell line SH-SYSY; assay: Neuroprotection against hydrogen peroxide-induced cell death (LDH release); assay type: cell-based; conditions: for inhibition at 30 µM: compound 30 micromolar (concentration of maximum protection); for inhibition at 3 µM: compound 3 micromolar (concentration of maximum protection); for inhibition at 1 µM: compound 1 micromolar (concentration of maximum protection); for inhibition at 10 µM: read-out: Protection (%)
[2] = molecular target: T1, purified AChE from Electrophorus electricus (Electrophorus electricus, UniProt O42275); assay: Inhibition of acetylcholinesterase (method of Rappaport); assay type: biochemical
T1 construct: using purified AChE from Electrophorus electricus; from tissue
Experimental: For this reason, it was considered interesting to evaluate the capacity to inhibit AChE of the compounds of the present invention. This evaluation was performed following the method of Rappaport (Clin. Chim. Acta 1959, 4, 227), using purified AChE from Electrophorus electricus and acetylcholine chloride (29.5 milimolar) as substrate. The reaction took place in a final volumen of 2.5 milliliters of an aqueous solution containing 0.78 units of AChE and m-nitrophenol at 1.9 milimolar to produce a yellow color, which is lost in function of the enzyme activity.
Curves of inhibition were made incubating with the compounds of the present invention for 30 minutes and a sample without any compound was prepared to determine the 100% of the enzymatic activity. After 30 minutes of incubation, the loss of yellow color was evaluated by measuring absorbance at 405 nanometers in a spectrophotometric microplate reader (iEMS Reader MF, Labsystems). The concentration of compound producing 50% inhibition of AChE activity (IC50) was calculated transforming the values of absorbance to enzymatic activity Rappaport units extrapolating from a calibration curve previously obtained.
The results of inhibition of AChE, expressed as the concentration which inhibits 50% of activity (IC50) for the compounds of the present invention, are the following: […]

[3] = molecular target: T2, peripheral site of AChE from bovine erythrocytes (Bos taurus, UniProt P23795); assay: biochemical; assay type: binding; conditions: for inhibition at 0.3 µM: compound 0.3 micromolar (concentration of maximum reduction)
T2 construct: A solution of AChE from bovine erythrocytes; from tissue; host or cells: bovine erythrocytes
T2 sequence (P23795 31-614 isoform P23795-2 limits assumed): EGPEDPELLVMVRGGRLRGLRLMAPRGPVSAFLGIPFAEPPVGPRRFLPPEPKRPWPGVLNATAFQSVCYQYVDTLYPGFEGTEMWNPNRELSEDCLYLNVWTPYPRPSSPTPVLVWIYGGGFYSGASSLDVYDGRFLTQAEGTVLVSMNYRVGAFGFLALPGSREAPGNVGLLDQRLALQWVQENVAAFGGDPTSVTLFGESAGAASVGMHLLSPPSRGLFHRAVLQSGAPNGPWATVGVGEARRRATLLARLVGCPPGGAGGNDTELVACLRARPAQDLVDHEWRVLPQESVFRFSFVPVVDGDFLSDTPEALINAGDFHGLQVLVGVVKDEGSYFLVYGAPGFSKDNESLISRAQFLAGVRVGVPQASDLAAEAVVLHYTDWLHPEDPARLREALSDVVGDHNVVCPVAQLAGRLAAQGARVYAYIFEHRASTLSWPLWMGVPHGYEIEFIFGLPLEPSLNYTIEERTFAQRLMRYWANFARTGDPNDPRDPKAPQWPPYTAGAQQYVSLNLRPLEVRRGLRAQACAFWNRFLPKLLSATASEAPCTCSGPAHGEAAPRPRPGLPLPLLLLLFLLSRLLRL
Experimental: A competition test for the peripheral site of acetylcholinesterase was carried out with the compounds at concentrations of 0.3, 1 and 3 micromolar.
A solution of AChE from bovine erythrocytes at the concentration of 5 micromolar in Tris buffer 0.1 milimolar and pH 8 was used.

[4] = PAMPA
Experimental: (§1) The experiments were performed using two 96-well microplate in a sandwich assembly. The top microplate (Millipore, Ref MAIPS4510) is provided with 96 hydrophobic PVDF filters, where a solution of a lipid extract of pig brain (Avanti Polar Lipids) in dodecane is put down.
(§2) The bottom microplate has 96 tear-shaped wells (Millipore, Ref. MAMCS9610). The acceptor 96-well microplate was filled with 180 μL per well of a mixture of phosphate buffer saline pH 7.4 (PBS) and EtOH in proportion 90:10. The filter surface of the donor microplate was impregnated with 4 μL of a solution of lipid extract from pig brain in dodecane (20 mg mL^−1). Compounds were dissolved in PBS/EtOH (90:10) and then 180 μL were added to the donor microplate, which is carefully placed on the receiver plate. After 120 minutes of incubation at 25° C., plate donor is carefully separated and determined the concentration of the compounds in the acceptor plate by UV spectroscopy. This method measures the permeability, expressed as the rate of passage of a given barrier in 10^−6 centimeter per second (10^−6 cm s^−1). The results are expressed as the mean plus/minus the standard deviation of three independent assays, each containing four replicates of each tested compound.

in vitro = conditions: pig, PAMPA, pH 7.4
Experimental: as §1, §2

[5] = tested on: human neuroblastoma cell line SH-SYSY; assay: Neuroprotection against rotenone plus oligomycin A-induced cell death (LDH release); conditions: rotenone (30 micromolar) plus oligomycin A (10 micromolar)
Experimental: With this goal in mind, the cytoprotective effect of the compounds was evaluated in human neuroblastoma cells, specifically the neuroprotective potential of these compounds against oxidative stress produced in two different models: with hydrogen peroxide as exogenous generator of free radicals, and with rotenone and oligomycin A, blockers of the mitochondrial respiratory chain, as described in J. Neurochem.
In the assays, SH-SYSY were sub-cultured in 48-well plates with a density of seed of 5×10^5 cells per well, or in 96-well plates with a density of 2×10^5 cells per well. In the cytotoxicity experiments, cells prepared in this way were treated with the compounds to test, in DMEM free of serum.
To study the cytoprotective action of different compounds against cell death induced by hydrogen peroxide 30 micromolar or by a combination of rotenone 30 micromolar with oligomycin A 10 micromolar, compounds were added to the medium and maintained there for 24 hours. Then, media were replaced by fresh media still containing the compound plus the cytotoxic agent, and were maintained there for an additional period of 24 hours. Cell viability was checked by measuring the activity of the enzyme LDH, as it was explained before, using the kit “Cytotoxicity Cell Death” (Roche-Boehringer Mannheim) following the instructions of the manufacturer. Total LDH activity was defined as the sum of intra plus extra LDH activities. Released LDH was defined as the percentage of extracellular compared with total LDH activity.
In all the pharmacological experiments a positive control was used as comparison and to evaluate the reliability of the method used.

[6] = oxygen peroxide (60 micromolar) stimulus, SH-SYSY, LDH
[7] = 30 minutes incubation, acetylcholine chloride 29.5 milimolar as substrate, read-out: AChE-I, IC50
[8] = propidium 20 micromolar, AChE 5 micromolar, read-out: Protection (%) (percentage of the reduction in propidium fluorescence)
[9] = compound 3 micromolar (concentration of maximum reduction), propidium 20 micromolar, AChE 5 micromolar, read-out: Protection (%) (percentage of the reduction in propidium fluorescence)
[10] = compound 0.3 micromolar (concentration of maximum protection)
[11] = read-out: Protection (%) (percentage of the reduction in propidium fluorescence)
[12] = compound 3 micromolar (concentration of maximum protection)
[13] = oxygen peroxide (60 micromolar) stimulus, compound 10 micromolar (concentration of maximum protection), SH-SYSY, LDH

T1 sequence (O42275 24-633): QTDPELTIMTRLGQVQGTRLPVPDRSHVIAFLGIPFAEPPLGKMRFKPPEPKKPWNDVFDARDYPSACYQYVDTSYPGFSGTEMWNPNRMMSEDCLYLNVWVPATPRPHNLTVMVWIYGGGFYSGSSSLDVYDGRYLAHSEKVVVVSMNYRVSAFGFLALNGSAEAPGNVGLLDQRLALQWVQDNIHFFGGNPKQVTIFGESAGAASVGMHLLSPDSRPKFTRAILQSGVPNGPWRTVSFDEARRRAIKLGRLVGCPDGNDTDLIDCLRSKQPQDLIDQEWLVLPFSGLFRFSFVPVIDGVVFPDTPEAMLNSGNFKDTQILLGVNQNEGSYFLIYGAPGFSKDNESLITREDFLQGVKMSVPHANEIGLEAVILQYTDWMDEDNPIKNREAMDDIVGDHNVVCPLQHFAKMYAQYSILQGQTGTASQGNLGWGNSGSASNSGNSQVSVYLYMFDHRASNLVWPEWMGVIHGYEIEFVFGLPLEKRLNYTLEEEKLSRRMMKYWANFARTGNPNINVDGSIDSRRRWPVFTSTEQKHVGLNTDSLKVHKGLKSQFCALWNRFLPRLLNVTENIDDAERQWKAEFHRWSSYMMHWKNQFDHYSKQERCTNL

SMILES: CCCCCCOC(=O)C(CCC(=O)NCCC1CCN(Cc2ccccc2)CC1)NC(=O)c1cc2cccnc2s1 (stereo not shown) [Example 1.6, n-hexyl 4-[2-(1-benzyl-piperidin-4-yl)-ethylcarbamoyl]-2-[(thieno[2,3-b]piridin-2-carbonyl)-amino]-butyrate]
- inhibition at 30 µM [1, 6]: 48.8%
- IC50 [2, 7]: 3.25 µM
- inhibition at 0.3 µM [3, 8]: 37.4%
- Classification (CNS penetration) [4]: CNS+
- Papp at 120 min (in vitro): 3.2 ± 0.01 ×10⁻⁶ cm/s

SMILES: CCCCCCOC(=O)C(CCC(=O)NCCC1CCN(Cc2ccccc2)CC1)NC(=O)Cc1cc2ccc(Cl)cc2s1 (stereo not shown) [Example 1.5, n-hexyl 4-[2-(1-benzyl-piperidin-4-yl)-ethylcarbamoyl]-2-[2-(6-chloro-benzo[b]thiophen-2-yl)-acetylamino]-butyrate]
- inhibition at 3 µM [1, 6]: 32.5%
- IC50 [2, 7]: 2.3 µM
- inhibition at 3 µM [3, 9]: 23.4%

SMILES: CCCCCCOC(=O)C(CCC(=O)NCCC1CCN(Cc2ccccc2)CC1)NC(=O)c1ccccc1 (stereo not shown) [Example 1.3, n-hexyl 2-benzoylamino-4-[2-(1-benzylpiperidin-4-yl)-ethylcarbamoyl]-butyrate]
- inhibition at 3 µM [1, 6]: 68.1%
- IC50 [2, 7]: 1.9 µM
- inhibition at 3 µM [3, 9]: 37.3%
- Protection (%) [5, 10]: 47.9%

SMILES: CCCCCCOC(=O)C(CCC(=O)NCCC1CCN(Cc2ccccc2)CC1)NC(=O)OC(C)(C)C (stereo not shown) [Example 1.2, n-hexyl 4-[2-(1-benzylpiperidin-4-yl)-ethylcarbamoyl]-2-tert-butoxycarbonylamino-butyrate]
- inhibition at 1 µM [1, 6]: 24.9%
- IC50 [2]: 5 µM
- inhibition at 1 µM [3, 11]: 43.6%
- Classification (CNS penetration) [4]: CNS+
- Papp at 120 min (in vitro): 4.4 ± 0.1 ×10⁻⁶ cm/s

SMILES: CCCCCCOC(=O)C(CCC(=O)NCCC1CCN(Cc2ccccc2)CC1)NC(=O)OCc1ccccc1 (stereo not shown) [Example 1.1, n-hexyl 2-benzyloxycarbonylamino-4-[2-(1-benzylpiperidin-4-yl)-ethylcarbamoyl]-butyrate]
- inhibition at 10 µM [1]: 39.1%
- IC50 [2]: 1.4 µM
- inhibition at 3 µM [3, 11]: 29.3%

SMILES: CCCCCCOC(=O)C(CCC(=O)NCCC1CCN(Cc2ccccc2)CC1)NC(=O)c1cc(Br)cs1 (stereo not shown) [Example 1.9, n-hexyl 4-[2-(1-benzyl-piperidin-4-yl)-ethylcarbamoyl]-2-[(4-bromo-thiophen-2-carbonyl)-amino]-butyrate]
- inhibition at 3 µM [1, 6]: 84.3%
- IC50 [2, 7]: 1.2 µM
- inhibition at 0.3 µM [3, 8]: 11.3%
- Protection (%) [5, 12]: 35.9%

SMILES: CCCCCCOC(=O)C(CCC(=O)NCCC1CCN(Cc2ccccc2)CC1)NC(=O)c1cccs1 (stereo not shown) [Example 1.8, n-hexyl 4-[2-(1-benzyl-piperidin-4-yl)-ethylcarbamoyl]-2-[(thiophen-2-carbonyl)-amino]-butyrate]
- inhibition at 10 µM [1, 13]: 73%
- IC50 [2, 7]: 3.5 µM
- inhibition at 3 µM [3, 9]: 15%
- Classification (CNS penetration) [4]: CNS+
- Papp at 120 min (in vitro): 5.3 ± 0.01 ×10⁻⁶ cm/s
- Protection (%) ([5]; compound 0.1 micromolar (concentration of maximum protection)): 48.9%

SMILES: CCCCCCOC(=O)C(CCC(=O)NCCC1CCN(Cc2ccccc2)CC1)NC(=O)c1cc2ccccc2s1 (stereo not shown) [Example 1.4, n-hexyl 2-[(benzo[b]tiofen-2-carbonyl)-amino]-4-[2-(1-benzyl-piperidin-4-yl)-ethylcarbamoyl]-butyrate]
- inhibition at 1 µM [1, 6]: 28.7%
- IC50 ([2]; read-out: AChE-I, IC50): 2.5 µM
- inhibition at 3 µM [3, 9]: 39.7%

SMILES: Cc1c(C)c2c(c(C)c1O)CCC(C)(C(=O)O)O2 (stereo not shown) [Trolox, trolox, reference compound]
- inhibition at 30 µM [1, 6]: 57.7%
- Protection (%) [5, 12]: 52.9%

SMILES: CCCCCCOC(=O)C(CCC(=O)NCCC1CCN(Cc2ccccc2)CC1)NC(=O)c1cc2ccsc2s1 (stereo not shown) [Example 1.7, n-hexyl 4-[2-(1-benzyl-piperidin-4-yl)-ethylcarbamoyl]-2-[(thieno[2,3-b]thiophen-2-carbonyl)-amino]-butyrate]
- inhibition at 10 µM [1, 13]: 46.4%
- IC50 [2, 7]: 3.5 µM
- inhibition at 0.3 µM [3, 8]: 42.2%
- Protection (%) [5, 10]: 46.1%

SMILES: C=CC[N+](C)(C)c1ccc(CCC(=O)CCc2ccc([N+](C)(C)CC=C)cc2)cc1.[Br-].[Br-] [BW284c51, reference compound]
- Protection (%) (percentage of the reduction in propidium fluorescence) ([3]; positive control at 1000 micromolar (1 milimolar), propidium 20 micromolar, AChE 5 micromolar): 24.5%
